# According to patent US6274588A, “4-phenyl-pyrimidine derivatives” (Hoffmann-La Roche Inc., priority 1999, dated 2001):
# Target: T1, human NK1 receptors (Homo sapiens, UniProt P25103)
# T1 construct: expressed in transfected cells; host or cells: CHO cells (Semliki virus expression system), membrane suspension
# Experiment: NK1 receptor binding assay, displacement of [3H]substance P
# Conditions: human NK1 receptors in CHO cells (Semliki virus expression system), [3H]substance P 0.6 nM, 60 min at room temperature; for Ki: read-out: affinity to the NK-1 receptor, given as pKi (converted)
# Experimental: The affinity of test compounds for the NK1 receptor was evaluated at human NK1 receptors in CHO cells infected with the human NK1 receptor (using the Semliki virus expression system) and radiolabelled with [^3 H]substance P (final concentration 0.6 nM). Binding assays were performed in HEPES buffer (50 mM, pH 7.4) containing BSA (0.04 %) leupeptin (8 μg/ml), MnCl2 (3 mM) and phosphoramidon (2 μM). Binding assays consisted of 250 μl of membrane suspension (1.25×10^5 cells/assay tube), […] of buffer of displacing agent and 125 μl of [^3 H]substance P. Displacement curves were determined with at least seven concentrations of the compound. The assay tubes were incubated for 60 min at room temperature after which time the tube contents were rapidly filtered under vacuum through GF/C filters presoaked for 60 min with PEI (0.3%) with 2×2 ml washed of HEPES buffer (50 mM, pH 7.4). The radioactivity retained on the filters was measured by scintillation counting. All assays were performed in triplicate in at least 2 separate experiments.
# T1 sequence (P25103 whole entry): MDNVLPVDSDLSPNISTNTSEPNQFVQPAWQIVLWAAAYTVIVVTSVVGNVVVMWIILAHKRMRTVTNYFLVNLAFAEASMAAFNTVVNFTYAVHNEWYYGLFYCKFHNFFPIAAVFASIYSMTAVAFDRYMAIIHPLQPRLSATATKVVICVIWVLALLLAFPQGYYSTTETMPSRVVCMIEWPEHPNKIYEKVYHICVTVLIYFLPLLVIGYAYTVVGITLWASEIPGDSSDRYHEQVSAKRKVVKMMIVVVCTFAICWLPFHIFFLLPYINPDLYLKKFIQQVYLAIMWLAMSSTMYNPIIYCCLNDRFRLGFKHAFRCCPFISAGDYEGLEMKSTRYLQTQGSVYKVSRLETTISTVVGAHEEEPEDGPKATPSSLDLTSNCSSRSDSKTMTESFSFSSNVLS
"affinity to the NK-1 receptor, given as pKi",Ki,Molecule
8.11,,"4-(2-Chloro-phenyl)-2-(3-dimethylamino-ethoxy)-pyrimidine-5-carboxylic acid(3,5-bis-trifluoromethyl-benzyl)-methyl-amide"
,1.74 nM,"CN(C)CCCOc1ncc(C(=O)N(C)Cc2cc(C(F)(F)F)cc(C(F)(F)F)c2)c(-c2ccccc2Cl)n1 [Example 53, 4-(2-Chloro-phenyl)-2-(3-dimethylamino-propoxy)-pyrimidine-5-carboxylic Acid (3,5-bis-trifluoromethyl-benzyl)-methyl-amide]"
,0.724 nM,"Cc1cc(F)ccc1-c1nc(N2CCNCC2)ncc1C(=O)N(C)Cc1cc(C(F)(F)F)cc(C(F)(F)F)c1 [Example 84, 4-(4-Fluor-2-methyl-phenyl)-2-piperazin-1-yl-pyrimidine-5-carboxylic Acid (3,5-bis-trifluoromethyl-benzyl)-methyl-amide]"
,3.55 nM,"CN(C)CCOc1ncc(C(=O)N(C)Cc2cc(C(F)(F)F)cc(C(F)(F)F)c2)c(-c2ccccc2Cl)n1 [Example 52, 4-(2-Chloro-phenyl)-2-(2-dimethylamino-ethoxy)-pyrimidine-5-carboxylic Acid (3,5-bis-trifluoromethyl-benzyl)-methyl-amide]"
,2.88 nM,"CN1CCN(c2ncc(C(=O)N(C)Cc3cc(C(F)(F)F)cc(C(F)(F)F)c3)c(-c3cccc4ccccc34)n2)CC1 [Example 88, 2-(4-Methyl-piperazin-1-yl)-4-naphthalen-1-yl-pyrimidine-5-carboxylic Acid (3,5-bis-trifluoromethyl-benzyl)-methyl-amide]"
